In the NIST ThermoML archive (doi:10.1016/j.fluid.2013.11.036):
Numbers after ± are expanded uncertainties.

Settings: Liquid; for mass density: 298.15 K, 101.33 kPa, Vibrating tube method; for Normal boiling temperature: Ebulliometric method (Recirculating still)

mass density [kg/m3]	Normal boiling temperature [°C]	SMILES
1042.5 ± 0.2	117.88 ± 0.2	CC(=O)O [acetic acid]
997.8 ± 0.2	100.00 ± 0.2	O [water]
